Consider two compounds from patent US20080159995A1, “TREATMENT OF FIBROSIS” (priority 2006, published 2008).

For series [1] the following is noted: cited from earlier work.
In series [2] the test system is Transforming Growth Factor (TGF)-β-Connective Tissue Growth Factor (CTGF) interactions via a Rho signalling pathway. As to conditions: recent studies, refs 1 and 2; cited from earlier work.
For series [3], the system named is A549 alveolar epithelial cells. Put plainly: alveolar epithelial cell wound repair model (in vitro epithelial wound-healing assay). It is filed as cell-based, human. As to conditions: mechanically wounded monolayer, FIG. 4.
Experimental: In the present studies an alveolar epithelial cells wound repair model was employed. […] Closure of this wound was monitored over 24 hours following treatment.
The wound healing assays were performed utilising A549 alveolar epithelial cells. The epithelial repair activity was determined using an in-vitro epithelial wound-healing assay as described in Example 1 (Geiser T et al. Am J Respir Crit. Care Med. 2001; 163: 1384-1388) using human A549 alveolar epithelial-like cells (American Type Culture Collection, Rockville, Md.). Briefly, A549 epithelial cells were cultured to confluency in 12-well plates for 48 hours in minimal essential medium (MEM) containing 10% fetal bovine serum and then mechanically wounded with a pipette tip. Concentrated BALF from each patient was added to the wounded epithelial monolayers (experiments performed in triplicates) and the area of the wound was measured over a time period of 24 hours.

Molecules are shown by their SMILES.

Take `CCC(C)C(=O)OC1CC(C)C=C2C=CC(C)C(CCC3CC(O)CC(=O)O3)C21` (stereo not drawn) [Lovastatin, [8-[2-(4-hydroxy-6-oxo-oxan-2-yl)ethyl]-3,7-dimethyl-1,2,3,7,8,8a-hexahydronaphthalen-1-yl]2-methylbutanoate]: the solubility in acetonitrile result in series [1] (acetonitrile) was “sparingly soluble”. Also, in series [1] (ethanol), the solubility in ethanol result is given as “sparingly soluble”. For the same compound, the solubility in methanol entry in series [1] (methanol) is “sparingly soluble”. Further, in series [1] (water), the solubility in water result is reported as “insoluble”.

Consider `CCC(C)(C)C(=O)O[C@H]1C[C@@H](C)C=C2C=C[C@@H](C)[C@H](CC[C@@H]3C[C@@H](O)CC(=O)O3)[C@H]21` [simvastatin, [(1S,3R,7R,8S,8aR)-8-[2-[(2R,4R)-4-hydroxy-6-oxo-oxan-2-yl]ethyl]-3,7-dimethyl-1,2,3,7,8,8a-hexahydronaphthalen-1 yl]2,2-dimethylbutanoate], for which the “anti-fibrotic potential (TGF-β-CTGF interactions, pro-fibrotic differentiation)” value in series [2] is on record as “over-riding Transforming Growth Factor (TGF)-β-Connective Tissue Growth Factor (CTGF) interactions”. In series [3], the wound closure result is “improves wound closure”.
